This assay deals with BDF1 mice, P388 leukemia ip, median survival T/C. Nature of the assay: NCI In Vivo Anticancer Drug Screen. Data for tumor model P388 Leukemia (intraperitoneal) in B6D2F1 (BDF1) mice. The conditions noted are these: endpoint: median survival time, higher = longer survival. A digest of the protocol: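 Reported as T/C, where T is the survival measurement in dosed animals and C the same measurement in vehicle controls.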

Setting [1] is: dose: 25.0 mg/kg/injection, schedule: Q01DX009 (ip), vehicle: saline with Tween-80.
The mark [2] stands for this setting: dose: 50.0 mg/kg/injection, schedule: Q01DX009 (ip), vehicle: saline with Tween-80.
Setting [3] is: dose: 50.0 mg/kg/injection, schedule: Q01DX010 (ip), vehicle: saline.
Setting [4] is: dose: 100.0 mg/kg/injection, schedule: Q04DX003 (ip), vehicle: saline.
The mark [5] stands for this setting: dose: 200.0 mg/kg/injection, schedule: Q04DX003 (ip), vehicle: saline.
Where [6] appears, read: dose: 25.0 mg/kg/injection, schedule: Q04DX003 (ip), vehicle: saline with Tween-80.
The mark [7] stands for this setting: dose: 50.0 mg/kg/injection, schedule: Q04DX003 (ip), vehicle: saline with Tween-80.
The mark [8] stands for this setting: dose: 100.0 mg/kg/injection, schedule: Q04DX003 (ip), vehicle: saline with Tween-80.
The mark [9] stands for this setting: dose: 200.0 mg/kg/injection, schedule: Q04DX003 (ip), vehicle: saline with Tween-80.

Molecules are shown by their SMILES. Several values for one entry are separate records, joined by “and”; a condition that tells them apart may be missing. Identical values can stand only once. Toxic doses and inconclusive results are not listed.

Consider `Nc1nc2ncc(CNc3ccc(C(=O)NC(CCC(=O)O)C(=O)O)cc3)nc2c(=O)[nH]1` (stereo not drawn), for which the T/C by setting is: (dose: 12.5 mg/kg/injection, schedule: Q01DX009 (ip), vehicle: saline with Tween-80) 100 % of control; under setting [1], 106 % of control; under setting [2], 107 % of control; under setting [3], 100 % of control.
Turning to `CN(C)c1cc(F)c(C=O)cc1[N+](=O)[O-]`, the T/C was 95 % of control under setting [4]; 100 % of control under setting [5]; 104 % of control (dose: 400.0 mg/kg/injection, schedule: Q04DX003 (ip), vehicle: saline).
On to `Nc1nc(C=O)c(Cc2ccc(Br)cc2)c(=O)[nH]1`, for which the T/C is, setting by setting: under setting [1], 123 % of control; under setting [6], 104 % of control; under setting [2], 123 % of control; under setting [7], 104 % of control; (dose: 66.0 mg/kg/injection, schedule: Q01DX009 (ip), vehicle: saline with Tween-80) 110 % of control; under setting [8], 113 % of control.
Regarding `CC(C)CCCCCCCCCCCCC(=O)NCC(=O)NC1C(C)OC(Nc2ncnc3nc[nH]c23)C(O)C1O` (stereo not drawn), under “dose: 432.0 micrograms/kg/injection, schedule: Q04DX003 (ip), vehicle: saline”, the T/C is 110 % of control.
In the case of `NNC(=O)C1CCC(=O)O1` (stereo not drawn), the T/C (dose: 75.0 mg/kg/injection, schedule: Q01DX009 (ip), vehicle: saline with Tween-80) is 98 % of control; the T/C (dose: 150.0 mg/kg/injection, schedule: Q01DX009 (ip), vehicle: saline with Tween-80) is 91 % of control; the T/C (dose: 300.0 mg/kg/injection, schedule: Q01DX009 (ip), vehicle: saline with Tween-80) is 100 % of control.
Regarding `O=C1C=CC(=O)N1CN1CCOCC1`, the T/C was 120 % of control (dose: 3.12 mg/kg/injection, schedule: Q01DX009 (ip), vehicle: saline); 104 % of control (dose: 6.25 mg/kg/injection, schedule: Q01DX009 (ip), vehicle: saline); 116 % of control (dose: 12.5 mg/kg/injection, schedule: Q01DX009 (ip), vehicle: saline); 111 % of control (dose: 18.75 mg/kg/injection, schedule: Q01DX009 (ip), vehicle: saline).
For `O.O.O.O.O=C([OH2+])CN=Cc1ccccc1O.O=C([OH2+])CN=Cc1ccccc1O.[Ni].[Ni]`, the T/C is 100 % of control (dose: 4.0 mg/kg/injection, schedule: Q01DX009 (ip), vehicle: saline with Tween-80); 113 % of control (dose: 6.25 mg/kg/injection, schedule: Q04DX003 (ip), vehicle: saline with Tween-80); 115 % of control (dose: 8.0 mg/kg/injection, schedule: Q01DX009 (ip), vehicle: saline with Tween-80).
In the case of `OC1c2ccccc2-c2ccccc2C1O` (stereo not drawn), the T/C reads like this: (dose: 200.0 mg/kg/injection, schedule: Q04DX002 (ip), vehicle: saline with Tween-80) 153 % of control; (dose: 400.0 mg/kg/injection, schedule: Q04DX002 (ip), vehicle: saline with Tween-80) 155 % of control.
`Cc1cc2nc3c(=O)[nH]c(=O)nc-3n(CC(O)C(O)C(O)C(O)CO)c2cc1C` (stereo not drawn): the T/C was 109 % of control (dose: 25.0 mg/kg/injection, schedule: Q01DX010 (ip), vehicle: saline); 95 % of control and 100 % of control under setting [3]; 90 % of control and 95 % of control and 104 % of control (dose: 100.0 mg/kg/injection, schedule: Q01DX010 (ip), vehicle: saline); 100 % of control and 114 % of control (dose: 200.0 mg/kg/injection, schedule: Q01DX010 (ip), vehicle: saline); 104 % of control and 110 % of control and 114 % of control (dose: 400.0 mg/kg/injection, schedule: Q01DX010 (ip), vehicle: saline).
As to `O=C(NC(=O)c1c(F)cccc1F)Nc1ncc(Cl)cc1Cl`, the T/C is, setting by setting: under setting [2], 90 % of control; (dose: 100.0 mg/kg/injection, schedule: Q01DX009 (ip), vehicle: saline with Tween-80) 100 % of control; (dose: 200.0 mg/kg/injection, schedule: Q01DX009 (ip), vehicle: saline with Tween-80) 90 % of control.
As for `O=[N+]([O-])CC(OCCO)C(Cl)(Cl)Cl` (stereo not drawn), the T/C was 95 % of control (dose: 3.12 mg/kg/injection, schedule: Q04DX003 (ip), vehicle: saline); 110 % of control (dose: 6.25 mg/kg/injection, schedule: Q01DX009 (ip), vehicle: acetone); 100 % of control (dose: 6.25 mg/kg/injection, schedule: Q04DX003 (ip), vehicle: saline); 89 % of control (dose: 12.5 mg/kg/injection, schedule: Q01DX009 (ip), vehicle: acetone); 95 % of control (dose: 12.5 mg/kg/injection, schedule: Q04DX003 (ip), vehicle: saline); 118 % of control (dose: 18.0 mg/kg/injection, schedule: Q04DX003 (ip), vehicle: saline with Tween-80). Moreover, the T/C runs as follows: (dose: 28.0 mg/kg/injection, schedule: Q04DX003 (ip), vehicle: saline with Tween-80) 90 % of control; (dose: 40.0 mg/kg/injection, schedule: Q04DX003 (ip), vehicle: saline with Tween-80) 86 % of control.
In the case of `O=NN(CCCl)C(=O)NC1CC2CCC1C2` (stereo not drawn), the T/C was 272 % of control (dose: 33.0 mg/kg/injection, schedule: Q04DX003 (ip), vehicle: saline with Tween-80) and 113 % of control (dose: 75.0 mg/kg/injection, schedule: Q04DX003 (ip), vehicle: saline with Tween-80).
For the compound `Nc1nc(=S)c2[nH]c(N=Nc3ccc(S(=O)(=O)Nc4ccccn4)cc3)nc2[nH]1`, the T/C runs as follows: (dose: 12.5 mg/kg/injection, schedule: Q01DX009 (ip), vehicle: Klucel (hydroxypropylcellulose) (HPC)) 108 % of control; (dose: 25.0 mg/kg/injection, schedule: Q01DX009 (ip), vehicle: Klucel (hydroxypropylcellulose) (HPC)) 91 % of control; (dose: 50.0 mg/kg/injection, schedule: Q01DX009 (ip), vehicle: Klucel (hydroxypropylcellulose) (HPC)) 90 % of control; (dose: 50.0 mg/kg/injection, schedule: Q04DX003 (ip), vehicle: Klucel (hydroxypropylcellulose) (HPC)) 87 % of control; (dose: 100.0 mg/kg/injection, schedule: Q04DX003 (ip), vehicle: Klucel (hydroxypropylcellulose) (HPC)) 116 % of control; (dose: 200.0 mg/kg/injection, schedule: Q04DX003 (ip), vehicle: Klucel (hydroxypropylcellulose) (HPC)) 104 % of control.
As for `CC(Cc1ccccc1)C(N)=O` (stereo not drawn), the T/C runs as follows: under setting [7], 105 % of control; under setting [8], 98 % of control; under setting [9], 113 % of control.
With `Brc1ccc(C[N+]23CN4CN(CN(C4)C2)C3)cc1`, the T/C runs as follows: (dose: 100.0 mg/kg/injection, schedule: Q01DX009 (ip), vehicle: saline) 115 % of control; under setting [4], 118 % of control; (dose: 132.0 mg/kg/injection, schedule: Q01DX009 (ip), vehicle: saline with Tween-80) 107 % of control and 108 % of control; (dose: 200.0 mg/kg/injection, schedule: Q01DX009 (ip), vehicle: saline) 90 % of control; under setting [5], 122 % of control.
Consider `COc1cc2ccc3c(c2cc1OC)N(C)C(OC)c1cc2c(cc1-3)OCO2` (stereo not drawn), for which the T/C (dose: 20.0 mg/kg/injection, schedule: Q01DX009 (ip), vehicle: water) was 104 % of control and the T/C (dose: 240.0 mg/kg/injection, schedule: Q01DX009 (ip), vehicle: water) is 95 % of control.
In the case of `N#Cc1ccc(NCCO)cc1`, the T/C by setting is: under setting [8], 111 % of control; under setting [9], 100 % of control; (dose: 400.0 mg/kg/injection, schedule: Q04DX003 (ip), vehicle: saline with Tween-80) 111 % of control.
Consider `Cc1cccc(C)c1NC(=O)N(CCCl)N=O`, for which the T/C runs as follows: (dose: 0.88 mg/kg/injection, schedule: Q01DX009 (ip), vehicle: saline with Tween-80) 159 % of control; (dose: 1.32 mg/kg/injection, schedule: Q01DX009 (ip), vehicle: saline with Tween-80) 159 % of control; (dose: 2.0 mg/kg/injection, schedule: Q01DX009 (ip), vehicle: saline with Tween-80) 204 % of control; (dose: 3.0 mg/kg/injection, schedule: Q01DX009 (ip), vehicle: saline with Tween-80) 200 % of control; (dose: 12.5 mg/kg/injection, schedule: Q04DX003 (ip), vehicle: saline with Tween-80) 86 % of control; under setting [6], 109 % of control.
`CC(C)=CCC/C(C)=C/CO`: the T/C was 100 % of control (dose: 15.6 mg/kg/injection, schedule: Q01DX010 (ip), vehicle: saline); 100 % of control (dose: 31.3 mg/kg/injection, schedule: Q01DX010 (ip), vehicle: saline); 113 % of control (dose: 62.5 mg/kg/injection, schedule: Q01DX010 (ip), vehicle: saline); 118 % of control (dose: 125.0 mg/kg/injection, schedule: Q01DX010 (ip), vehicle: saline).

Source of the values: PubChem BioAssay AID328 (DTP/NCI, 2004).
